From patent US20250064773A1, “TARGETING ERO1 ALPHA WITH AURONE DERIVATIVES” (West Virginia University Board of Governors on behalf of …, priority 2021, published 2025)

Molecular target: T1, recombinant ERO1α (Homo sapiens, UniProt Q96HE7, C104A/C131A/C166A)
T1 construct: made in house
T1 sequence (Q96HE7 22-468 C104A/C131A/C166A): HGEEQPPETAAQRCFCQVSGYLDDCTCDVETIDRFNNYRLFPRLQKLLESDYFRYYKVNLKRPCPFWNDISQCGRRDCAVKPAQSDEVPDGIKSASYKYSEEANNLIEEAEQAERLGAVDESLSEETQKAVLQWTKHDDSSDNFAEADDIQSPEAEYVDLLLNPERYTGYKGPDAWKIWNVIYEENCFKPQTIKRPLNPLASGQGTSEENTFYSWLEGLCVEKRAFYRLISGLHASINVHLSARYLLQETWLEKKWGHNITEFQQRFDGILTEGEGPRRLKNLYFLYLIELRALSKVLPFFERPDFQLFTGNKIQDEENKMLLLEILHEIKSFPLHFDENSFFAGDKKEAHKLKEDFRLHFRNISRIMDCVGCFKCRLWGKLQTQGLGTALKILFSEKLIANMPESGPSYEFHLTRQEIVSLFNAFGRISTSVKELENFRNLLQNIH
Test: Surface plasma resonance (Biacore) binding
Conditions: SPR
Procedure: Surface plasma resonance (SPR) was utilized as an orthogonal assay to confirm direct binding between T151742 and ERO1α. For the SPR assay, recombinant ERO1α was crosslinked to a C5 chip and varying concentrations of ligand T151742 were evaluated for detection of changes in refractive index, due to change in mass on the chip when ligand is bound to the protein. […] The relatively high Kd value is in part due to the fast off-rate.
Cell Lines: PC-9 cell line used was obtained from Sigma Aldrich and grown in RPMI 1640 medium with 10% fetal bovine serum and 1% penicillin/streptomycin. HCC4006, U266, MM1.s, and Beas-2B cell lines were obtained from ATCC and cultured in either RPMI 1640 or DMEM with 10% fetal bovine serum and 1% penicillin/streptomycin. […] Plate was then read on the BioTek Cytation 5 at 530/590 nm. […] Plate was then read at 570 nm. Treated wells were all compared to DMSO control wells to calculate percent growth inhibition and the IC50 was calculated using GraphPad (log(inhibitor) vs growth inhibition). […] Images were then quantified using ImageJ. […] Cells were aliquoted at 1 million cells per PCR tube in PBS and heated in Bio-Rad T100 thermal cycler at indicated temperatures (RT, 46° C., 48° C., 50° C., 52° C., 54° C., 56°, 58° C., and 60° C.) for 3 minutes and aggregation temperature was determined by western blot analysis. […]

Question: `CN(C)c1ccc(/C=C2\Oc3cc(O)ccc3C2=O)cc1` [Compound T151742] was tested. Which off-rate did it give?
Answer: The off-rate was “fast off-rate”.
